Source: PubChem BioAssay AID2060907 (Molecular Pharmacology Branch, DTP, NCI, 2025)

System: 388556-164-R-J1-PDC complex spheroid viability
Assay: Anticancer human tumor 388556-164-R-J1-PDC patient-derived colon adenocarcinoma cell line growth inhibition [RAS]
Conditions: for IC50: curve of first compound; for viability, T/C: stronger effect = lower value
From the text: RAS pathway inhibitors in Combinations in Complex Spheroids
A high-throughput screen of multi-cell type tumor spheroids was designed to identify active combinations of RAS pathway inhibitors and targeted small molecules. Complex spheroids include a stromal component modeled by human endothelial cells (HUVEC) and fibroblasts modeled by human mesenchymal stem cells (MSCs). The concentration ranges selected for each drug and investigational agent were based upon clinically achievable concentrations if the clinical Cmax of the agent was known.
Compounds. The drugs and investigational agents: abemaciclib (NSC768073), cobimetinib (NSC768068), divarasib (GDC6063, NSC841802), docetaxel (NSC628503), GDC-1971 (RLY-1971, NSC841576), gemcitabine (NSC613327), inavolisib (NSC800729), ipatasertib (NSC767898), KB-0742 (NSC834161), MRTX-1133 (NSC836407), osimertinib (NSC779217), RMC-4630 (NSC839698), RMC-6236 (NSC851965), RMC-6291 (NSC852671), Ro-3306 (NSC812927), sapanisertib (NSC764658), SN-38 (NSC673596), staurosporine (NSC755774), SY5609 (NSC837396), and tovorafenib (DAY101, NSC766906), were obtained from the National Cancer Institute (NCI) Developmental Therapeutics Program Chemical Repository. The FDA-approved anticancer drug set is available from the NCI Developmental Therapeutics Program. […] The stock solutions were prepared in dimethyl sulfoxide (DMSO, Sigma-Aldrich, St. Louis, MO, cat. D2650) at 800-fold the tested concentration and stored at -70 degrees C prior to their use. All drugs and investigational agents were tested over a range starting from a high concentration at or near the clinical Cmax and decreasing in half-log increments. If the clinical Cmax for an agent had not been determined, the highest concentration tested was 10 microM.
Cell Culture. All cells were maintained in an incubator at 37 degrees C and 5% CO2 with 95% humidity. The PDC lines were cultured according to standard operating procedures established by the NCI PDMR. All PDCs were thawed and cultured in Matrigel-coated flasks prepared with a working solution of 1X Ham's F-12 nutrient mix, without supplementation (Invitrogen, Waltham, MA, cat. 11765054), 100 U/mL penicillin-streptomycin (Invitrogen, cat. 15140122), and 2.5% Matrigel (Corning Inc., Corning, NY, cat. 354248) for the first three passages. The 362531-283-R-J2-PDC and 782815-120-R-J1-PDC lines were cultured in 6C/Colon 1B media, which includes advanced DMEM/F-12 (Thermo Fisher Scientific, cat. 12634028), 10 mM HEPES (Thermo Fisher Scientific, cat. 15630080), 1X GlutaMAX supplement (Thermo Fisher Scientific, cat. 35050061), 0.1 mg/mL primocin (InvivoGen, San Diego, CA, cat. ant-pm-2), 10% defined fetal bovine serum, heat inactivated (HyClone Laboratories Inc., Logan, UT, cat. SH30070.03HI), 50% L-WRN conditioned media (ATCC, cat. CRL-3276), 1.25 mM N-Acetyl-L-cysteine (Sigma-Aldrich, cat. A9165), 10 mM nicotinamide (Sigma-Aldrich, cat. N0636), 1X B-27 supplement (Thermo Fisher Scientific, cat. 17504044), 1X N-2 supplement (Thermo Fisher Scientific, cat. 17502048), 50 ng/mL human EGF (Thermo Fisher Scientific, cat. PHG0311), and 10 microM Y-27632 dihydrochloride (Tocris Bioscience, cat. 1254). The K12877-001-R-J1-PDC line was cultured in 6I media, which includes all 6C/Colon 1B media plus 10 ng/mL human FGF-10 (PeproTech, cat. 100-26), 1 ng/mL human FGF-2 (PeproTech, cat. 100-18B), 1 µM prostaglandin E2 (Tocris Bioscience, cat. 2296), […] hydrocortisone (Sigma-Aldrich, cat. H4001), and […] bovine insulin (Sigma-Aldrich, cat. I6634). The K86415-001-R-J1-PDC line was cultured in 6D media, which includes all 6C/Colon 1B media components minus the L-WRN conditioned media. The 485176-168-R4-J1-PDC was cultured in PANC media, which includes all 6C/Colon 1B media plus 100 ng/mL human FGF-10 (PeproTech, cat. 100-26), 500 nM SB-431542 (Selleckchem, cat. S1067), and 10 nM gastrin (Tocris Bioscience, cat. 3006). […]

[1] = second compound 0.000949 µM, first compound 0.0316 µM
[2] = second compound 0.000949 µM, first compound 0.1 µM
[3] = second compound 0.000949 µM, first compound 0.316 µM
[4] = second compound 0.000949 µM, first compound 1 µM
[5] = second compound 0.000949 µM, first compound 3.16 µM
[6] = second compound 0.000949 µM, first compound 10 µM
[7] = second compound 0.003 µM, first compound 0.0316 µM
[8] = second compound 0.003 µM, first compound 0.1 µM
[9] = second compound 0.003 µM, first compound 0.316 µM
[10] = second compound 0.003 µM, first compound 1 µM
[11] = second compound 0.003 µM, first compound 3.16 µM
[12] = second compound 0.003 µM, first compound 10 µM
[13] = second compound 0.00949 µM, first compound 0.0316 µM
[14] = second compound 0.00949 µM, first compound 0.1 µM
[15] = second compound 0.00949 µM, first compound 0.316 µM
[16] = second compound 0.00949 µM, first compound 1 µM
[17] = second compound 0.00949 µM, first compound 3.16 µM
[18] = second compound 0.00949 µM, first compound 10 µM
[19] = second compound 0.03 µM, first compound 0.0316 µM
[20] = second compound 0.03 µM, first compound 0.1 µM
[21] = second compound 0.03 µM, first compound 0.316 µM
[22] = second compound 0.03 µM, first compound 1 µM
[23] = second compound 0.03 µM, first compound 3.16 µM
[24] = second compound 0.03 µM, first compound 10 µM
[25] = second compound 0.0949 µM, first compound 0.0316 µM
[26] = second compound 0.0949 µM, first compound 0.1 µM
[27] = second compound 0.0949 µM, first compound 0.316 µM
[28] = second compound 0.0949 µM, first compound 1 µM
[29] = second compound 0.0949 µM, first compound 3.16 µM
[30] = second compound 0.0949 µM, first compound 10 µM
[31] = second compound 0.3 µM, first compound 0.0316 µM
[32] = second compound 0.3 µM, first compound 0.1 µM
[33] = second compound 0.3 µM, first compound 0.316 µM
[34] = second compound 0.3 µM, first compound 1 µM
[35] = second compound 0.3 µM, first compound 3.16 µM
[36] = second compound 0.3 µM, first compound 10 µM
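Further: spheroids exposed to compound for 7 days before readout.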
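Wherever viability, T/C is given: 100% = DMSO vehicle control luminescence.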

CC1(O)CCCC1n1c(=O)c(C(F)F)cc2cnc(NC3CCN(S(C)(=O)=O)CC3)nc21 (centres undefined) + CCn1c(-c2cc(N3CCN(C)CC3)cnc2C(C)OC)c2c3cc(ccc31)-c1csc(n1)CC(NC(=O)C1CC1C)C(=O)N1CCCC(N1)C(=O)OCC(C)(C)C2
IC50 (second compound 0.000949 µM): > 10000 nM
IC50 (second compound 0.003 µM): > 10000 nM
IC50 (second compound 0.00949 µM): 9450 nM
IC50 (second compound 0.03 µM): > 10000 nM
IC50 (second compound 0.0949 µM): < 31.6 nM
IC50 (second compound 0.3 µM): < 31.6 nM
viability, T/C [1]: 91.1%
viability, T/C [2]: 94.2%
viability, T/C [3]: 89.8%
viability, T/C [4]: 91.6%
viability, T/C [5]: 94.1%
viability, T/C [6]: 61.7%
viability, T/C [7]: 102%
viability, T/C [8]: 91.7%
viability, T/C [9]: 90%
viability, T/C [10]: 78.7%
viability, T/C [11]: 87.3%
viability, T/C [12]: 62.8%
viability, T/C [13]: 78.8%
viability, T/C [14]: 75.4%
viability, T/C [15]: 80.6%
viability, T/C [16]: 77.9%
viability, T/C [17]: 72.7%
viability, T/C [18]: 48.8%
viability, T/C [19]: 62.6%
viability, T/C [20]: 58.5%
viability, T/C [21]: 64.9%
viability, T/C [22]: 59.4%
viability, T/C [23]: 66%
viability, T/C [24]: 44.2%
viability, T/C [25]: 46.7%
viability, T/C [26]: 44%
viability, T/C [27]: 47.3%
viability, T/C [28]: 42.4%
viability, T/C [29]: 45.7%
viability, T/C [30]: 35.1%
viability, T/C [31]: 31.2%
viability, T/C [32]: 37%
viability, T/C [33]: 33.4%
viability, T/C [34]: 38.8%
viability, T/C [35]: 38.1%
viability, T/C [36]: 24.1%

Cc1nc(N2CCC3(CC2)COC(C)C3N)c(CO)nc1Sc1ccnc(N)c1Cl (centres undefined) + CCn1c(-c2cc(N3CCN(C)CC3)cnc2C(C)OC)c2c3cc(ccc31)-c1csc(n1)CC(NC(=O)C1CC1C)C(=O)N1CCCC(N1)C(=O)OCC(C)(C)C2
IC50 (second compound 0.000949 µM): 774 nM
IC50 (second compound 0.003 µM): 694 nM
IC50 (second compound 0.00949 µM): 233 nM
IC50 (second compound 0.03 µM): 67.6 nM
IC50 (second compound 0.0949 µM): < 31.6 nM
IC50 (second compound 0.3 µM): < 31.6 nM
viability, T/C [1]: 84.3%
viability, T/C [2]: 83.6%
viability, T/C [3]: 60.2%
viability, T/C [4]: 47.5%
viability, T/C [5]: 43.1%
viability, T/C [6]: 34.3%
viability, T/C [7]: 81.2%
viability, T/C [8]: 70.3%
viability, T/C [9]: 57.7%
viability, T/C [10]: 45.8%
viability, T/C [11]: 39.2%
viability, T/C [12]: 32.8%
viability, T/C [13]: 68.7%
viability, T/C [14]: 53.4%
viability, T/C [15]: 52.5%
viability, T/C [16]: 36.6%
viability, T/C [17]: 35.1%
viability, T/C [18]: 29.7%
viability, T/C [19]: 56.7%
viability, T/C [20]: 45.6%
viability, T/C [21]: 39.2%
viability, T/C [22]: 33.4%
viability, T/C [23]: 29.9%
viability, T/C [24]: 23.5%
viability, T/C [25]: 40.6%
viability, T/C [26]: 37.2%
viability, T/C [27]: 30.9%
viability, T/C [28]: 26.3%
viability, T/C [29]: 25.9%
viability, T/C [30]: 22.8%
viability, T/C [31]: 28.8%
viability, T/C [32]: 30.6%
viability, T/C [33]: 25.4%
viability, T/C [34]: 25.7%
viability, T/C [35]: 24%
viability, T/C [36]: 20%
